The assay has as its system BDF1 mice, P388 leukemia ip, median survival T/C. In words: NCI In Vivo Anticancer Drug Screen. Data for tumor model P388 Leukemia (intraperitoneal) in B6D2F1 (BDF1) mice. The conditions noted are these: endpoint: median survival time, higher = longer survival. The procedure, abridged:
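Reported as T/C, where T is the survival measurement in dosed animals and C the same measurement in vehicle controls.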

[1] abbreviates: dose: 100.0 mg/kg/injection, schedule: Q04DX003 (ip), vehicle: saline with Tween-80.
[2] abbreviates: dose: 200.0 mg/kg/injection, schedule: Q04DX003 (ip), vehicle: saline with Tween-80.
Setting [3] is: dose: 400.0 mg/kg/injection, schedule: Q04DX003 (ip), vehicle: saline with Tween-80.
Where [4] appears, read: dose: 100.0 mg/kg/injection, schedule: Q04DX003 (ip), vehicle: saline.
Setting [5] is: dose: 200.0 mg/kg/injection, schedule: Q04DX003 (ip), vehicle: saline.
The mark [6] stands for this setting: dose: 400.0 mg/kg/injection, schedule: Q04DX003 (ip), vehicle: saline.
Setting [7] is: dose: 50.0 mg/kg/injection, schedule: Q01DX009 (ip), vehicle: saline with Tween-80.
[8] abbreviates: dose: 100.0 mg/kg/injection, schedule: Q01DX009 (ip), vehicle: saline with Tween-80.
Setting [9] is: dose: 200.0 mg/kg/injection, schedule: Q01DX009 (ip), vehicle: saline with Tween-80.
The mark [10] stands for this setting: dose: 6.25 mg/kg/injection, schedule: Q01DX009 (ip), vehicle: saline.
Where [11] appears, read: dose: 25.0 mg/kg/injection, schedule: Q01DX009 (ip), vehicle: saline.
[12] abbreviates: dose: 100.0 mg/kg/injection, schedule: Q01DX009 (ip), vehicle: saline.
[13] abbreviates: dose: 400.0 mg/kg/injection, schedule: Q01DX009 (ip), vehicle: saline with Tween-80.
Setting [14] is: dose: 12.5 mg/kg/injection, schedule: Q01DX009 (ip), vehicle: saline.

Where “and” joins values, the source holds several entries; their conditions need not be identical. Identical values can stand only once. Toxic doses and inconclusive results are not listed.

`CN(C)C(=O)CCCCC(=O)N(C)C`: the T/C (dose: 1.0 mg/kg/injection, schedule: Q01DX001 (ip), vehicle: saline) is 96 % of control; the T/C (dose: 2.0 mg/kg/injection, schedule: Q01DX001 (ip), vehicle: saline) was 110 % of control; the T/C (dose: 4.0 mg/kg/injection, schedule: Q01DX001 (ip), vehicle: saline) is 106 % of control; the T/C (dose: 8.0 mg/kg/injection, schedule: Q01DX001 (ip), vehicle: saline) is 102 % of control; the T/C (dose: 16.0 mg/kg/injection, schedule: Q01DX001 (ip), vehicle: saline) is 96 % of control; the T/C (dose: 32.0 mg/kg/injection, schedule: Q01DX001 (ip), vehicle: saline) was 100 % of control. The T/C (dose: 64.0 mg/kg/injection, schedule: Q01DX001 (ip), vehicle: saline) is 95 % of control and the T/C (dose: 128.0 mg/kg/injection, schedule: Q01DX001 (ip), vehicle: saline) was 102 % of control.

Take `O=S(=O)(OCCF)c1cc(Cl)c(Cl)cc1Cl`: under “dose: 50.0 mg/kg/injection, schedule: Q01DX005 (ip), vehicle: Klucel (hydroxypropylcellulose) (HPC)”, the T/C was 113 % of control.

As for `O=C(Nc1cccc2c1N(C(=O)c1ccco1)CCC2)c1ccco1`, the T/C was 91 % of control under setting [1], 100 % of control under setting [2] and 104 % of control under setting [3].

As to `O=C(N/N=C\c1c(Cl)cccc1Cl)c1ccccc1`, the T/C is 113 % of control (dose: 50.0 mg/kg/injection, schedule: Q04DX003 (ip), vehicle: acetone); 95 % of control (dose: 100.0 mg/kg/injection, schedule: Q04DX003 (ip), vehicle: acetone); 90 % of control (dose: 200.0 mg/kg/injection, schedule: Q04DX003 (ip), vehicle: acetone).

Consider `Nc1ccccc1CCCC(=O)O`, for which the T/C was 100 % of control under setting [4], 100 % of control under setting [5] and 104 % of control under setting [6].

In the case of `CCCCCCCCCCCC(=O)CC(SCC)c1ccccc1` (stereo unspecified), the T/C runs as follows: under setting [7], 96 % of control; under setting [8], 87 % of control; under setting [9], 89 % of control.

Turning to `CC(=O)OCC(=O)[C@@]1(O)CC[C@H]2[C@@H]3CCC4=CC(=O)C=C[C@]4(C)[C@H]3C(=O)C[C@@]21C`, the T/C by setting is: (dose: 25.0 mg/kg/injection, schedule: Q01DX009 (ip), vehicle: saline with Tween-80) 109 % of control; under setting [7], 122 % of control; (dose: 63.75 mg/kg/injection, schedule: Q01DX009 (ip), vehicle: Klucel (hydroxypropylcellulose) (HPC)) 113 % of control; under setting [8], 118 % of control; (dose: 100.0 mg/kg/injection, schedule: Q04DX003 (ip), vehicle: Klucel (hydroxypropylcellulose) (HPC)) 100 % of control; (dose: 127.5 mg/kg/injection, schedule: Q01DX009 (ip), vehicle: Klucel (hydroxypropylcellulose) (HPC)) 122 % of control. Besides, the T/C by setting is: (dose: 200.0 mg/kg/injection, schedule: Q04DX003 (ip), vehicle: Klucel (hydroxypropylcellulose) (HPC)) 104 % of control; (dose: 255.0 mg/kg/injection, schedule: Q01DX009 (ip), vehicle: Klucel (hydroxypropylcellulose) (HPC)) 100 % of control; (dose: 400.0 mg/kg/injection, schedule: Q04DX003 (ip), vehicle: Klucel (hydroxypropylcellulose) (HPC)) 104 % of control.

As for `CCC1CC2CN(CCc3c([nH]c4ccccc34)C(C(=O)OC)(c3cc4c(cc3OC)N(C)C3C(O)(C(=O)OC)C(OC(C)=O)C5(CC)C=CCN6CCC43C65)C2)C1` (stereo unspecified), the T/C reads like this: (dose: 0.06 mg/kg/injection, schedule: Q01DX009 (ip), vehicle: water) 90 % of control; (dose: 0.12 mg/kg/injection, schedule: Q01DX009 (ip), vehicle: water) 90 % of control and 100 % of control; (dose: 0.25 mg/kg/injection, schedule: Q01DX009 (ip), vehicle: water) 95 % of control and 100 % of control; (dose: 0.5 mg/kg/injection, schedule: Q01DX009 (ip), vehicle: water) 90 % of control and 100 % of control; (dose: 1.0 mg/kg/injection, schedule: Q01DX009 (ip), vehicle: water) 90 % of control and 95 % of control and 100 % of control; (dose: 2.0 mg/kg/injection, schedule: Q01DX009 (ip), vehicle: water) 90 % of control and 95 % of control. Besides, the T/C is, setting by setting: (dose: 4.0 mg/kg/injection, schedule: Q01DX009 (ip), vehicle: water) 100 % of control; (dose: 8.0 mg/kg/injection, schedule: Q01DX009 (ip), vehicle: water) 100 % of control and 90 % of control.

`Cn1ccc2nncn2c1=O`: the T/C (dose: 100.0 mg/kg/injection, schedule: Q01DX001 (ip), vehicle: saline with Tween-80) was 115 % of control; the T/C (dose: 200.0 mg/kg/injection, schedule: Q01DX001 (ip), vehicle: saline with Tween-80) is 95 % of control; the T/C (dose: 400.0 mg/kg/injection, schedule: Q01DX001 (ip), vehicle: saline with Tween-80) is 98 % of control.

Regarding `CN(S(=O)(=O)CC(F)(F)F)S(=O)(=O)C(F)(F)F`, the T/C reads like this: under setting [10], 100 % of control; under setting [11], 108 % of control; under setting [12], 100 % of control.

With `CCCCCCC(=O)/C=C/c1cccc(O)c1`, the T/C was 104 % of control under setting [7], 104 % of control under setting [8] and 95 % of control under setting [9].

On to `CCOC(=O)c1c[nH]c2nc(SC)nc(NC(C)=O)c2c1=O`, for which the T/C by setting is: under setting [7], 102 % of control; under setting [8], 87 % of control; under setting [9], 89 % of control.

For the compound `O=C(/C=C/c1ccc(Cl)cc1Cl)c1ccc(Cl)cc1`, the T/C runs as follows: under setting [8], 104 % of control; under setting [9], 104 % of control; under setting [13], 100 % of control.

As to `C[N+]1=C2CCCC2=C(N)CC1`, the T/C under setting [10] is 110 % of control; the T/C under setting [14] was 115 % of control; the T/C (dose: 12.5 mg/kg/injection, schedule: Q04DX003 (ip), vehicle: saline) was 95 % of control; the T/C under setting [11] was 100 % of control; the T/C (dose: 25.0 mg/kg/injection, schedule: Q04DX003 (ip), vehicle: saline) is 100 % of control.

On to `Cc1ccc(C2(C#N)CC2)cc1`, for which the T/C is 108 % of control under setting [8]; 100 % of control under setting [1]; 112 % of control under setting [9]; 108 % of control under setting [2]; 116 % of control under setting [13]; 116 % of control under setting [3].

For `CC(=O)Oc1ccc2c(c1)CCC1C2CCC2(C)C1CCC21CO1` (stereo unspecified), the T/C was 90 % of control under setting [7], 97 % of control under setting [8] and 98 % of control under setting [9].

As to `O=NN(CCCl)C(=O)N[C@H]1CCCC[C@@H]1Cl`, the T/C by setting is: (dose: 33.0 mg/kg/injection, schedule: Q04DX003 (ip), vehicle: saline with Tween-80) 272 % of control; (dose: 50.0 mg/kg/injection, schedule: Q04DX003 (ip), vehicle: saline with Tween-80) 272 % of control; (dose: 75.0 mg/kg/injection, schedule: Q04DX003 (ip), vehicle: saline with Tween-80) 213 % of control.

`O=c1[nH]c(=O)n(CC(O)c2ccc(Cl)s2)cc1F` (stereo unspecified): the T/C is 103 % of control under setting [2] and 117 % of control under setting [3].

As to `COc1cccc(/C=C/[N+](=O)[O-])c1OC`, the T/C runs as follows: (dose: 6.25 mg/kg/injection, schedule: Q01DX009 (ip), vehicle: Klucel (hydroxypropylcellulose) (HPC)) 113 % of control; under setting [10], 100 % of control; under setting [14], 106 % of control; (dose: 12.5 mg/kg/injection, schedule: Q01DX010 (ip), vehicle: carboxymethylcellulose (CMC)) 115 % of control; under setting [11], 104 % of control; (dose: 35.0 mg/kg/injection, schedule: Q01DX009 (ip), vehicle: Klucel (hydroxypropylcellulose) (HPC)) 117 % of control. The T/C is 113 % of control (dose: 50.0 mg/kg/injection, schedule: Q01DX009 (ip), vehicle: saline); 102 % of control (dose: 50.0 mg/kg/injection, schedule: Q04DX003 (ip), vehicle: saline); 104 % of control under setting [12]; 98 % of control under setting [4]; 91 % of control (dose: 200.0 mg/kg/injection, schedule: Q01DX009 (ip), vehicle: saline); 95 % of control under setting [5]. Moreover, the T/C is 91 % of control (dose: 400.0 mg/kg/injection, schedule: Q01DX009 (ip), vehicle: saline) and 106 % of control under setting [6].

Values taken from PubChem BioAssay AID328 (DTP/NCI, 2004).
